Consider 5 molecules from article PMC4128710 (Biochemical pharmacology, 2014).

Read-outs that look alike come from different tables or passages of the source.

The target of assay [1] is T1, A2BAR (Homo sapiens, UniProt P29275).
T1 sequence (P29275 1-332): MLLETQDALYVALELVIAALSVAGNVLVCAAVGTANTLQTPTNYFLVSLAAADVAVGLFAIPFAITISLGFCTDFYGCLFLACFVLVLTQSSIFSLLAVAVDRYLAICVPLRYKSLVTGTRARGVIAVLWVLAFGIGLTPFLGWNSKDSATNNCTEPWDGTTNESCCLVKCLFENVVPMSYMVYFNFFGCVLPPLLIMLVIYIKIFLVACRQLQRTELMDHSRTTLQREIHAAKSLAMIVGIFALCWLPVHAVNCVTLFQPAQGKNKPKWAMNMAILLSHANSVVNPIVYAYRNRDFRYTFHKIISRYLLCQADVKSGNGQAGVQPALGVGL
The experiment in a line: Intracellular calcium mobilization in T24 cells. To be noted: T-24, read-out: Max effect Calcium (% of effect of NECA). On the technique in general: Calcium flux is commonly read through the fluorescence of an indicator in the cells.

Assay [2] concerns A2BAR. The experiment in a line: cAMP accumulation in COS-7 cells endogenously expressing the A2BAR. To be noted: for Max effect cAMP accumulation: NECA = 100; for EC50: read-out: EC50 cAMP accumulation. Background: Changes in cAMP serve as a functional read-out for many G protein-coupled receptors.
In assay [3] the target is T1, A2BAR. The experiment in a line: cAMP accumulation in WM266 melanoma cells endogenously expressing the A2BAR. To be noted: for Emax: WM266, read-out: Max effect cAMP accumulation.
For assay [4], the target named is T1, A2BAR. The experiment in a line: ERK1/2 phosphorylation in HEK293 cells. The note with it: for Emax: HEK293, read-out: Max effect ERK1/2 (% of effect of NECA).
Assay [5] concerns the target T1, A2BAR. The experiment in a line: ERK1/2 phosphorylation in T24 cells. To be noted: for ERK1/2 stimulation: T24 cells; for Emax: T-24, read-out: Max effect ERK1/2 (% of effect of NECA).
The target of assay [6] is T1, A2BAR. The note with it: for Emax: PC-3, read-out: Max effect cAMP accumulation.
In assay [7] the target is T1, A2BAR. The experiment in a line: Intracellular calcium mobilization in HEK293 cells overexpressing the A2BAR. The note with it: for log (τ/KA) / τ: Calcium pathway; for τ: operational model, A2BAR-overexpressing HEK293; for ΔΔlog (τ/KA): Calcium versus cAMP reference pathway; for Bias: Calcium versus cAMP, bias ≫1 disfavors the pathway.
Assay [8] concerns the target T2, mouse A2BAR (Mus musculus, UniProt Q60614).
T2 sequence (Q60614 1-332): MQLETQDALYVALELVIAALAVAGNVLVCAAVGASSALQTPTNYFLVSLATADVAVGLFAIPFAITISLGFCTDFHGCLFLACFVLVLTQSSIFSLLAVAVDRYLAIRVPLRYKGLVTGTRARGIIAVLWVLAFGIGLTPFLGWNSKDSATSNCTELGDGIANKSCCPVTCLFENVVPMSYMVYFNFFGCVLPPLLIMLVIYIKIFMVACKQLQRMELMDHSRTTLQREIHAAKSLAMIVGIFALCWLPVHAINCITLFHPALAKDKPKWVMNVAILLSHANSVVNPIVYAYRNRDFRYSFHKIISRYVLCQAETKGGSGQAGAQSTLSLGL
The experiment in a line: β-Arrestin2 translocation in PathHunter CHO cells. The note with it: for Emax: CHO, read-out: Max effect β-arrestin (% of effect of NECA); for log (τ/KA) / τ / Δlog (τ/Ka): β-Arrestin pathway; for τ: operational model, CHO mouse A2BAR; for Δlog (τ/Ka): relative to NECA.

Assay [9] relates to mouse A2BAR. The experiment in a line: β-Arrestin2 translocation in PathHunter CHO cells. To be noted: for ΔΔlog (τ/KA): β-Arrestin versus cAMP reference pathway; for Bias: β-Arrestin versus cAMP, bias ≫1 disfavors the pathway.
The target in assay [10] is T1, A2BAR. The experiment in a line: cAMP accumulation in HEK293 cells overexpressing the A2BAR. To be noted: for Emax: HEK293, read-out: Max effect cAMP (% of effect of NECA); for τ: operational model, A2BAR-overexpressing HEK293.
The subject of assay [11] is MIN-6 mouse pancreatic β cells. The experiment in a line: Insulin release in MIN6 cells. It is filed as cell-based. To be noted: MIN-6 cells, 16.7 mM glucose, 1 h.
The target in assay [12] is T1, A2BAR. The experiment in a line: cAMP accumulation in 1321N1 astrocytoma cells endogenously expressing the A2BAR. The note with it: for Emax: 1321-N1, read-out: Max effect cAMP accumulation.
Assay [13] deals with T1, A2BAR. The experiment in a line: ERK1/2 phosphorylation in HEK293 cells overexpressing the A2BAR. To be noted: for log (τ/KA) / τ / Δlog (τ/Ka): ERK1/2 pathway; for τ: operational model, A2BAR-overexpressing HEK293; for Δlog (τ/Ka): relative to NECA; for ΔΔlog (τ/KA): ERK1/2 versus cAMP reference pathway; for Bias: ERK1/2 versus cAMP, bias ≫1 disfavors the pathway; for Emax: HEK293, read-out: Max effect ERK1/2 (% of effect of NECA).

Assay [14] has as its target T1, A2BAR. The experiment in a line: cAMP accumulation in T24 cells endogenously expressing the A2BAR. To be noted: for Emax: T-24, read-out: Max effect cAMP (% of effect of NECA).
For assay [15], the target named is T1, A2BAR. The experiment in a line: Intracellular calcium mobilization in HEK293 cells. The note with it: HEK293, read-out: Max effect Calcium (% of effect of NECA).
In assay [16] the target is T1, A2BAR. The experiment in a line: cAMP accumulation in HEK293 cells endogenously expressing the A2BAR. The note with it: for Emax: HEK293, read-out: Max effect cAMP (% of effect of NECA).
The subject of assay [17] is A1 and A3 ARs. The experiment in a line: Inhibition of forskolin-stimulated cAMP accumulation.

One may read the EC50 as the concentration giving half of the maximal effect. The Kd is the free concentration of one partner at which half of the binding sites on the other are occupied at equilibrium, for simple one-to-one binding. Consider `N#Cc1c(N)nc(SCC(N)=O)c(C#N)c1-c1ccc(OCC2CC2)cc1` [BAY, 2-[[6-amino-3,5-dicyano-4-[4-(cyclopropylmethoxy)phenyl]-2-pyridinyl]thio]acetamide], for which the Emax in assay [1] is 2.3 ± 1.5%; in assay [3] it was 9.8 ± 1.7%; in [4], 38.3 ± 5.9%; in assay [5], -9.4 ± 3.8%; in assay [6], 72.6 ± 5.1%; in assay [8], 26.6 ± 3%. For the same molecule, the Emax is 102 ± 1% in assay [10]; 52.6 ± 3.1% in assay [12]; 38.4 ± 3.3% in assay [13]; 62.9 ± 9.6% in [14]; -2.4 ± 1.7% in [15]; 73 ± 12.1% in assay [16]. Also, in [2], the “Max effect cAMP accumulation” value was 98.3±3.7%. The EC50 in assay [2] came to 0.0079 ± 0.0012 µM; in assay [4] it was 0.0688 ± 0.0047 µM; in [6] it was 0.0453 ± 0.0059 µM; in assay [7], 1.1 ± 0.39 µM; in assay [8] it was 5.62 ± 1.24 µM; in assay [10], 0.00614 ± 0.00161 µM. For the same molecule, the EC50 in [12] came out at 0.113 ± 0.017 µM; in assay [13] it was 0.0289 ± 0.0041 µM; in [14] (EC50 cAMP accumulation, T24 cells, 5 nM A2BAR siRNA), 0.102 ± 0.017 µM; in assay [14] (EC50 cAMP accumulation, T24 cells, 50 nM A2BAR siRNA) it was 0.127 ± 0.031 µM; in assay [14] (EC50 cAMP accumulation, T24 cells, 500 nM A2BAR siRNA), 0.093 ± 0.019 µM; in assay [14] (EC50 cAMP accumulation, T24 cells, absence of A2BAR siRNA), 0.098 ± 0.022 µM. The EC50 in assay [14] (EC50 cAMP, T24 cells) came out at 0.043 ± 0.0177 µM; in [16], 0.296 ± 0.146 µM. Also, the “ERK1/2 stimulation” value in assay [5] is “did not produce any stimulation”. Moreover, the Kd was found to be 1.67 µM in assay [7], 12.3 µM in assay [8], 0.705 µM in [10] and 0.0595 µM in assay [13]. Moreover, the “log (τ/KA)” value in assay [7] was 4.66 ± 0.35; in assay [8], 4.30 ± 0.17; in assay [10] (cAMP pathway), 8.15 ± 0.38; in assay [13], 7.02 ± 0.44. Further, the τ in assay [7] is recorded as 0.08; in assay [8], 0.25; in assay [10] (cAMP pathway), 100; in [13], 0.62. In addition, the “ΔΔlog (τ/KA)” value in [7] is listed as 4.22; in assay [9] it was 2.16; in assay [13], -0.66. Also, the figures for the Bias in assay [7], in assay [9] and in assay [13] were 16600, 145 and 0.22, respectively. Further, the “Δlog (τ/Ka)” value is -1.43 ± 0.09 in [8]; 0.73 ± 0.04 in assay [10] (cAMP pathway, relative to NECA); 1.39 ± 0.17 in [13]. Moreover, the “Glucose stimulated insulin secretion” value in assay [11] was “induced insulin secretion”. Moreover, the “maximum agonist effect, cAMP accumulation (NECA as 100%)” value in [14] (T24 cells, 5 nM A2BAR siRNA) is on record as 54 ± 4%; in assay [14] (T24 cells, 50 nM A2BAR siRNA), 48 ± 6%; in [14] (T24 cells, 500 nM A2BAR siRNA), 36 ± 3%; in assay [14] (T24 cells, absence of A2BAR siRNA) it was 68 ± 7%. The “τ value (operational model), cAMP accumulation” value in assay [14] (T24 cells, siRNA silencing / overexpression methods) is on record as 1.19; in [16] (HEK293 cells, siRNA silencing / overexpression methods), 1.54.
For the molecule `OC[C@H]1O[C@@H](n2cnc3c(NC4CCCC4)ncnc32)[C@H](O)[C@@H]1O` [CPA, N^6-cyclopentyladenosine], in assay [17], the “inhibition of forskolin-stimulated cAMP accumulation” value is “inactive”.
As for `CCCn1c(=O)[nH]c2nc(-c3ccc(S(=O)(=O)N4CCN(c5ccc(Cl)cc5)CC4)cc3)[nH]c2c1=O` [PSB603], the “Glucose stimulated insulin secretion” value in assay [11] is listed as “induced insulin secretion”.
As to `CNC(=O)[C@H]1O[C@@H](n2cnc3c(NCc4cccc(I)c4)nc(Cl)nc32)[C@H](O)[C@@H]1O` [Cl-IB-MECA], in assay [17], the “inhibition of forskolin-stimulated cAMP accumulation” value was “inactive”.
Regarding `Nc1nc(OCCc2c[nH]c3cc(Br)ccc23)nc2c1ncn2[C@@H]1O[C@H](CO)[C@@H](O)[C@H]1O` [MRS3997, 2-(2-(6-bromo-indol-3-yl)ethyloxy)adenosine], the Emax was -2.7 ± 3.2% in [1]; 96.2 ± 1.8% in [3]; 42.3 ± 9.4% in [4]; -8.2 ± 7.6% in [5]; 98.2 ± 7.7% in assay [6]; 28.1 ± 3.5% in assay [8]. The Emax in assay [10] came to 102 ± 6.6%; in assay [12] it was 98.4 ± 3.1%; in assay [13], 29.7 ± 2.6%; in assay [14], 94.9 ± 2.2%; in assay [15] it was 1.6 ± 2.2%; in [16], 96.2 ± 24.3%. In addition, the “Max effect cAMP accumulation” value in assay [2] is recorded as 100±6%. Moreover, the EC50 was found to be 0.226 ± 0.032 µM in assay [2]; 1.87 ± 0.32 µM in [3]; 0.166 ± 0.032 µM in assay [4]; 0.48 ± 0.032 µM in assay [6]; 0.0629 ± 0.0076 µM in [10]; 1.26 ± 0.18 µM in assay [12]. Further, the EC50 in [13] is 0.203 ± 0.048 µM; in [14], 0.745 ± 0.225 µM; in [16], 1.02 ± 0.25 µM. Besides, the “ERK1/2 stimulation” value in assay [5] was “did not produce any stimulation”. The Kd worked out at 7.1 µM in assay [7], 18.1 µM in assay [8], 6.7 µM in assay [10] and 0.362 µM in assay [13]. The “log (τ/KA)” value in [7] came out at 3.35 ± 0.44; in assay [8] it was 4.17 ± 0.23; in [10] (cAMP pathway) it was 6.83 ± 0.45; in assay [13], 6.08 ± 0.89. The τ in assay [7] was determined as 0.02; in assay [8] it was 0.27; in assay [10] (cAMP pathway) it was 45.1; in [13] it was 0.44. Moreover, the “ΔΔlog (τ/KA)” value in assay [7] worked out at 4.06; in assay [9] it was 2.15; in [13] it was 0.14. For the same molecule, the Bias in assay [7] worked out at 11500; in assay [9], 141; in [13], 1.38. Further, the “Δlog (τ/Ka)” value in [8] is -1.56 ± 0.18; in assay [13] it was 0.45 ± 0.03.
